According to patent publication US10183936B2, “Hepatitis B core protein allosteric modulators” (priority 2014, dated 2019):

How the values were obtained:
[1] = test system: HBV viral production in AD38 cells; experiment: Viral load production in AD38 cells by quantitative PCR of the HBV core sequence in supernatant; format: cell-based; settings: Hepatitis B virus, 144 h; 10 μM compound, 6 days at 37° C., viral load in supernatant compared against DMSO control wells; read-out: AD38 Viral Load (CpAM/DMSO %) at 10 μM
Method in brief: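 Read-out is TaqMan qPCR of the HBV core region in supernatant, quantitated against standards and referenced to DMSO controls (≥3 per plate). Cells: AD38 at 50,000/well, exposed to compound (added as 10× stock in 10% DMSO) for 6 days at 37° C.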

AD38 cells = experiment: Viability of AD38 cells (Promega CellTiter-Glo) at the end of compound treatment; format: cell-based; settings: 10 μM compound, 6 days, luminescence normalized against DMSO control wells (controls being 100%)
Method in brief: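 Luminescent CellTiter-Glo read-out, taken after supernatant was swapped for tetracycline-free 2% FBS medium with 1% DMSO, gave percent viability relative to DMSO controls set at 100%. Cells were plated at 50,000/well and exposed to compound, added as a 10× stock in 10% DMSO, for 6 days at 37° C.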

| SMILES | activity at 10 µM [1] [%] | AD38 Viability Normalized Result (CPAM/DMSO %) at 10 μM (AD38 cells) [%] |
| --- | --- | --- |
| O=C(NCc1cncs1)c1ccc2c(c1)NC(=O)c1ccccc1S2 [Compound 1245] | 1 | 101 |
| O=C(NCCc1ccc2ccccc2c1)c1ccc2c(c1)NC(=O)c1ccccc1S2 [Compound 1110] | 2 | 119 |
| O=C1Nc2c(cc(F)c(C(=O)NCCc3ccc(-c4ccccc4)cc3)c2F)Sc2ccccc21 [Compound 1497] | 9 | 49 |
| O=C(NCCc1cccc(F)c1)c1ccc2c(c1)NC(=O)c1ccccc1S2 [Compound 1130] | 2 | 101 |
| O=C(NCCO)c1ccc2c(c1)NC(=O)c1ccccc1S2 [Compound 1172] | 51 | 107 |
| O=C(Nc1nccs1)c1ccc2c(c1)NC(=O)c1ccccc1S2(=O)=O [Compound 1634] | 45 | 125 |
| O=C(NCc1cnco1)c1ccc2c(c1)NC(=O)c1ccc(F)cc1S2 [Compound 1349] | 12 | 102 |
| O=C(NCc1cncs1)c1ccc2c(c1)NC(=O)c1ccc(F)cc1S2 [Compound 1356] | 3 | 101 |
| CC(C)c1ncsc1CNC(=O)c1ccc2c(c1)NC(=O)c1ccccc1S2 [Compound 1614] | 2 | 45 |
| O=C(Nc1ccncc1)c1ccc2c(c1)NC(=O)c1ccccc1[S+]2[O-] (stereo not shown) [Compound 1382] | 47 | 117 |
| O=C(Nc1ccncc1)c1ccc2c(c1)NC(=O)c1ccccc1S2(=O)=O [Compound 1462] | 35 | 99 |
| O=C(NCc1cccnc1)c1ccc2c(c1)NC(=O)c1ccccc1[S+]2[O-] (stereo not shown) [Compound 1427] | 7 | 85 |
| CCc1ccc(CCNC(=O)c2ccc3c(c2)NC(=O)c2ccccc2S3)cc1 [Compound 1185] | 1 | 0 |
| O=C(NCCC1CCC(F)CC1)c1ccc2c(c1)NC(=O)c1ccccc1S2 (stereo not shown) [Compound 1217] | 1 | 37 |
| O=C(NCCc1nnc(-c2ccco2)[nH]1)c1ccc2c(c1)NC(=O)c1ccccc1S2 [Compound 1570] | 2 | 115 |
| O=C(NCCC1CCCO1)c1ccc2c(c1)NC(=O)c1ccccc1S2 (stereo not shown) [Compound 1209] | 1 | 102 |
| O=C(Nc1ccc(Cl)cc1)c1ccc2c(c1)NC(=O)c1cc(F)ccc1S2 [Compound 1321] | 15 | 74 |
| O=C(NCCC1CCC(F)(F)CC1)c1ccc2c(c1)NC(=O)c1ccccc1S2 [Compound 1216] | 1 | 125 |
| O=C(NCCC1CCCCC1)c1ccc2c(c1)NC(=O)c1ccc(Cl)cc1S2 [Compound 1250] | 14 | 113 |
| O=C(NCc1cccc(OC(F)(F)F)c1)c1ccc2c(c1)NC(=O)c1ccccc1S2 [Compound 1203] | 3 | 89 |
| O=C(NCc1ccccc1OC(F)(F)F)c1ccc2c(c1)NC(=O)c1ccccc1S2 [Compound 1232] | 42 | 94 |
| O=C(NCCC1CCCCC1)c1ccc2c(c1)Sc1ccccc1C(=O)N2 [Compound 1199] | 19 | 109 |
| O=C(Nc1nc(-c2ccccc2)co1)c1ccc2c(c1)NC(=O)c1cc(F)ccc1S2 [Compound 1454] | 27 | 95 |
| NS(=O)(=O)c1ccc(CCNC(=O)c2ccc3c(c2)NC(=O)c2ccccc2S3)cc1 [Compound 1101] | 15 | 107 |

| SMILES | activity at 10 µM [1] [%] | AD38 Viability Normalized Result (CPAM/DMSO %) at 10 μM (AD38 cells) [%] |
| --- | --- | --- |
| O=C1Nc2cc(S(=O)(=O)Nc3cncnc3)ccc2[S+]([O-])c2ccccc21 (stereo not shown) [Compound 1506] | 72 | 85 |
| O=C(NCCc1ccc(-c2ccccc2)cc1)c1ccc2c(c1)NC(=O)c1ccccc1S2 [Compound 1111] | 2 | 89 |
| O=C(Nc1cccc(-c2ccc(O)cc2)c1)c1ccc2c(c1)NC(=O)c1cc(F)ccc1S2 [Compound 1453] | 48 | 97 |
| O=C(NCc1ccccc1F)c1ccc2c(c1)NC(=O)c1ccccc1S2 [Compound 1167] | 57 | 124 |
| O=C(NCCOc1ccccc1)c1ccc2c(c1)NC(=O)c1ccccc1S2(=O)=O [Compound 1625] | 2 | 111 |
| O=C1Nc2c(cc(F)c(C(=O)NCc3cncs3)c2F)Sc2ccccc21 [Compound 1545] | 59 | 88 |
| CCOc1ccccc1CCNC(=O)c1ccc2c(c1)NC(=O)c1ccccc1S2 [Compound 1156] | 16 | 106 |
| O=C(NCCCCC1CCCCC1)c1ccc2c(c1)NC(=O)c1ccccc1S2 [Compound 1150] | 1 | 22 |
| CCc1ccc(CNC(=O)c2ccc3c(c2)NC(=O)c2ccccc2S3)cc1 [Compound 1188] | 4 | 83 |
| O=C(NCCCCc1ccncc1)c1ccc2c(c1)NC(=O)c1ccccc1S2 [Compound 1149] | 5 | 118 |
| O=C(Nc1ncco1)c1ccc2c(c1)NC(=O)c1cc(F)ccc1S2 [Compound 1353] | 50 | 97 |
| Cc1cc(C(=O)NCCC2CCCCC2)cc2c1Sc1ccccc1C(=O)N2 [Compound 1286] | 36 | 114 |
| O=C(NCc1ccc(O)cc1)c1ccc2c(c1)NC(=O)c1ccccc1S2 [Compound 1196] | 2 | 95 |
| COc1ccc(CCNC(=O)c2ccc3c(c2)NC(=O)c2ccccc2S3)cc1 [Compound 1114] | 1 | 104 |
| O=C(Nc1cccc(-c2ccccc2)c1)c1ccc2c(c1)NC(=O)c1cccc(F)c1S2 [Compound 1410] | 35 | 50 |
| O=C(NCCC1CCCCC1)c1ccc2c(c1)NC(=O)c1cc(Cl)ccc1S2 [Compound 1235] | 6 | 61 |
| O=C1Nc2c(cc(F)c(C(=O)NCCc3cccnc3)c2F)Sc2ccccc21 [Compound 1531] | 53 | 96 |
| O=C(NCc1cccnc1)c1ccc2c(c1)NC(=O)c1cccc(F)c1S2 [Compound 1392] | 2 | 85 |
| O=C(NCc1scnc1-c1ccccc1)c1ccc2c(c1)NC(=O)c1ccccc1S2 [Compound 1605] | 25 | 106 |
| CN(C)CCCOc1ccc(CCNC(=O)c2ccc3c(c2)NC(=O)c2ccccc2S3)cc1.Cl [Compound 1155] | 18 | 103 |
| O=C(NCCc1cnco1)c1ccc2c(c1)NC(=O)c1cccc(F)c1S2 [Compound 1487] | 15 | 96 |
| Cc1c(C(=O)NCc2cncs2)ccc2c1NC(=O)c1ccccc1S2 [Compound 1513] | 2 | 82 |
| O=C(NCCc1cncnc1)c1ccc2c(c1)NC(=O)c1ccccc1S2 [Compound 1290] | 33 | 94 |
